According to patent US20190255048A1, “PYRIMIDINE COMPOUND OR SALT THEREOF IN APPLICATION FOR MANUFACTURING PHARMACEUTICAL PRODUCT FOR PREVENTING AND/OR TREATING FLT3-RELATED DISEASE OR DISORDER” (SHENZHEN HAIBIN PHARMACEUTICAL CO., LTD, priority 2016, published 2019):
pIC50: −log10 of the molar value.

Assays:
[1] = tested on: human acute myeloid leukemia cell strain OCI-AML-3 (expressing FLT3A680V mutant gene); test: Effects on proliferation of tumor cells (Cell Titer-Glo), OCI-AML-3; format: cell-based; details: OCI-AML-3, incubated for 72 hours
From the text: (§1) This example tested the effects of the compounds of the present invention (the compound shown in Formula (I), hydrochloride salt, phosphate, mesylate, lactate, acetate, sulphate, and hydrobromide thereof prepared in EXAMPLES 1-8 respectively) on proliferation of tumor cells, and further evaluated the inhibitory effects of the compounds on proliferation of tumor cells and selectivity of the compounds in inhibiting proliferation of tumor cells.
(4) human acute myeloid leukemia cell strain OCI-AML-3 (expressing FLT3A680V mutant gene);
(§2) The compounds at different concentration (0.000508 μM, 0.00152 μM, 0.00457 μM, 0.0137 μM, 0.0411 μM, 0.123 μM, 0.370 μM, 1.11 μM, 3.33 μM, 10 μM in DMSO) were added to the above-mentioned cells respectively, incubated for 72 hours, Cell Titer-Glo (Promega, United States of America) Chemiluminescence Kit was used to quantify ATP in living cells to detect the number of living cells, the results were shown as Table 3

[2] = tested on: human acute myeloid leukemia cell strain MOLM-14 (expressing FLT3/ITD mutant gene and wild-type FLT3 gene); test: Effects on proliferation of tumor cells (Cell Titer-Glo), MOLM-14; format: cell-based; details: MOLM-14, incubated for 72 hours
From the text: as §1
(3) human acute myeloid leukemia cell strain MOLM-14 (expressing FLT3/ITD mutant gene and wild-type FLT3 gene);
as §2

[3] = tested on: human acute myeloid leukemia cell strain U937 (expressing wild-type FLT3 gene); test: Effects on proliferation of tumor cells (Cell Titer-Glo), U937; format: cell-based
From the text: as §1
(5) human acute myeloid leukemia cell strain U937 (expressing wild-type FLT3 gene);
as §2

FLT3 kinase = biological target: T1, FLT3 kinase (Homo sapiens, UniProt P36888); test: Activity of inhibiting FLT3 kinase (fluorescein labeled peptide kinase assay); format: biochemical; details: in vitro kinase assay, 28° C.
T1 sequence (P36888 27-993): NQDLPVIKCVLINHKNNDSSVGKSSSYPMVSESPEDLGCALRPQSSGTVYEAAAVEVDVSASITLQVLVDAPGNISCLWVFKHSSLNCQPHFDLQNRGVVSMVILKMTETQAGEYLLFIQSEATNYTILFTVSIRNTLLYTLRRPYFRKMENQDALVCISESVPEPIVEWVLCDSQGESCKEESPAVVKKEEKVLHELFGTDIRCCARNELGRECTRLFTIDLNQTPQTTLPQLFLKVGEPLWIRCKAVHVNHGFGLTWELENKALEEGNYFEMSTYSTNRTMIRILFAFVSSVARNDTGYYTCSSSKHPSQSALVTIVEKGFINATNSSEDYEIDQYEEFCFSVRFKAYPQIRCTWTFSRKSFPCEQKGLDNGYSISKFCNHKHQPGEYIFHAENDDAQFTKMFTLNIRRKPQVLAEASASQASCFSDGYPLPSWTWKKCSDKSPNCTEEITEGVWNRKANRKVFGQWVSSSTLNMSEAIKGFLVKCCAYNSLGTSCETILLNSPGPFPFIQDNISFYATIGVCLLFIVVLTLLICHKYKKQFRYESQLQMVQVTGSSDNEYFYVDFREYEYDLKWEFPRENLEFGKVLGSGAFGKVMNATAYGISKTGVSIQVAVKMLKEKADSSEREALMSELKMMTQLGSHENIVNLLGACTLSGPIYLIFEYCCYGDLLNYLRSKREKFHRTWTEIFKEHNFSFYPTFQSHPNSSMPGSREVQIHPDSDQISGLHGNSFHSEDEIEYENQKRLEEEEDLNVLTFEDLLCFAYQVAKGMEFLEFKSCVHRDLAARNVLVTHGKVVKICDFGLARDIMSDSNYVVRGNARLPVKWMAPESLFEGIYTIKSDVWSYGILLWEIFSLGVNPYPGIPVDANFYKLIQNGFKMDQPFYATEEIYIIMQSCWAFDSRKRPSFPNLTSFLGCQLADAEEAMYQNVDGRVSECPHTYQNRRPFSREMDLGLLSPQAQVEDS
Description: Activity of Inhibiting FLT3 Kinase
1. Preparation of 1 × Kinase Buffer and Termination Buffer:
(1) MnCl2-free 1× kinase buffer: 50 mM HEPES, pH 7.5, 0.0015% Brij-35, 10 mM MgCl2, 2 mM DTT;
(2) Termination buffer: 100 mM HEPES, pH 7.5, 0.015% Brij-35, 0.2% Coating Reagent #3, 50 mM EDTA.
2. Preparation of compounds for testing kinase: the compounds are diluted continuously.
(1) the compound was diluted to 50 times the maximum final concentration with 100% DMSO. […] of the solution containing the compound at this concentration was transferred to one hole of 96-well plate;
(2)10 concentrations of compounds were prepared by diluting 20 mL original solution with 60 mL DMSO;
(3) […] solution of 100% DMSO was added into two empty holes as compound-free control and enzyme-free control; (4) a transitional plate was prepared, 10 mL compounds at different concentrations were transferred from the original plate to the transitional plate respectively, 90 mL 1× kinase buffer was added, and then mixed under oscillation for 10 minutes;
(5) preparation of an experimental plate: 5 mL solution containing compounds was transferred from the hole of the transitional plate of the 96-well plate to the corresponding hole of 384-well plate.
(1) Preparation of 2.5× enzyme solution: enzyme was added to the 1× kinase buffer;
(2) Preparation of 2.5× peptide solution: a fluorescein labeled peptide and ATP were added to the 1× kinase buffer;
(3) 10 mL 2.5× enzyme solution was added to an experimental 384-well plate containing the compound solution with a concentration of 10% containing 5 mL DMSO and incubated at room temperature for 10 minutes;
(4) 10 mL 2.5× peptide solution was added to an experimental 384-well plate;
(5) kinase reaction and termination: Incubation was carried out at 28° C. for certain time, 25 mL termination buffer was added to terminate the reaction.
Data was read and collected.
(1) detected data was copied and converted
(2) data was converted to inhibitory rate
Inhibitory rate=(Maximum Value−Sample Value)/(Maximum Value−Minimum Value)*100;
wherein “Maximum Value” is the value of DMSO control; “Minimum Value” is the value of kinase-free control hole.
(3) the data was input an analysis software to obtain IC50 value.

[4] = tested on: human acute myeloid leukemia cell strain MOLM-13 (expressing FLT3/ITD mutant gene and wild-type FLT3 gene); test: Effects on proliferation of tumor cells (Cell Titer-Glo), MOLM-13; format: cell-based; details: MOLM-13, incubated for 72 hours
From the text: as §1
(2) human acute myeloid leukemia cell strain MOLM-13 (expressing FLT3/ITD mutant gene and wild-type FLT3 gene);
as §2

[5] = tested on: mouse BaF3-FLT3-ITD-F691L (stably expressing FLT3/ITD F691L mutant activated kinase); test: Effects on proliferation of cells (Cell Titer-Glo), BaF3-FLT3-ITD-F691L; format: cell-based; details: incubated for 72 hours
From the text: as §1
(10) mouse BaF3-FLT3-ITD-F691L (stably expressing FLT3/ITD F691L mutant activated kinase).
as §2

[6] = tested on: mouse BaF3-FLT3-ITD-D835Y (stably expressing FLT3/ITD D835Y mutant activated kinase); test: Effects on proliferation of cells (Cell Titer-Glo), BaF3-FLT3-ITD-D835Y; format: cell-based; details: incubated for 72 hours
From the text: as §1
(9) mouse BaF3-FLT3-ITD-D835Y (stably expressing FLT3/ITD D835Y mutant activated kinase);
as §2

[7] = tested on: mouse TEL-BaF3-FLT3/ITD (stably expressing FLT3/ITD mutant activated kinase); test: Effects on proliferation of cells (Cell Titer-Glo), TEL-BaF3-FLT3/ITD; format: cell-based; details: incubated for 72 hours
From the text: as §1
(6) mouse TEL-BaF3-FLT3/ITD (stably expressing FLT3/ITD mutant activated kinase);
as §2

[8] = tested on: human acute monocytic leukemia cell strain MV4-11 (expressing FLT3/ITD mutant gene); test: Effects on proliferation of tumor cells (Cell Titer-Glo), MV4-11; format: cell-based; details: MV4-11, incubated for 72 hours
From the text: as §1
(1) human acute monocytic leukemia cell strain MV4-11 (expressing FLT3/ITD mutant gene);
as §2

[9] = tested on: mouse TEL-FLT3-BaF3 (stably expressing FLT3 kinase); test: Effects on proliferation of cells (Cell Titer-Glo), TEL-FLT3-BaF3; format: cell-based; details: TEL-FLT3-BaF3, incubated for 72 hours
From the text: as §1
(8) mouse TEL-FLT3-BaF3 (stably expressing FLT3 kinase);
as §2

[10] = tested on: mouse TEL-BaF3-FLT3-D835Y (stably expressing FLT3D835Y mutant activated kinase); test: Effects on proliferation of cells (Cell Titer-Glo), TEL-BaF3-FLT3-D835Y; format: cell-based; details: incubated for 72 hours
From the text: as §1
(7) mouse TEL-BaF3-FLT3-D835Y (stably expressing FLT3D835Y mutant activated kinase);
as §2

[11] = tested on: subcutaneous xenograft tumor of human MV-4-11; test: Therapeutic effects on subcutaneous xenograft tumor of human MV-4-11 in nude mice; format: in vivo, BALB/cA-nude mice; details: MV-4-11 subcutaneous xenograft, 15 mg/kg intraperitoneal injection, 3 times a day for 21 days
Description: Preparation of test samples: all samples were prepared with 5% anhydrous ethanol, 5% Cremophor EL and 90% physiological saline.
Animals: BALB/cA-nude mice, 6-7 weeks, female ♀ purchased from Shanghai Lingchang Biotechnology Co., Ltd. Production license number was SC×K(Hu)2013-0018; animal certification number was 2013001810589.
Feeding environment: SPF Level.
Experiment steps: human acute myeloid leukemia cells MV-4-11 were inoculated subcutaneously in nude mice, after the tumor grows to 80-150 mm^3, animals were randomly divided into groups with 6 mice each group. The dosage was 15 mg/kg, the drugs were administrated by intraperitoneal injection, 3 times a day for 21 days. The volume of tumor was measured, the weight of mouse was weighed and the data were recorded.
The formula for calculating the volume of tumor (V) was: […]
Wherein a and b represented length and width respectively.
T/C (%)=(T−T0)/(C−C0)×100
Wherein T and C were the volume of tumor when the experiment was completed; T0 and C0 were the volume of tumor when the experiment was started.
The inhibited rate of tumor was calculated, the results were shown as Table 4.

Row | Compound | IC50 [1] [µM] | IC50 [2] [µM] | IC50 ([3]; U937, incubated for 72 hours) [µM] | pIC50 (FLT3 kinase) | IC50 [4] [µM] | IC50 [5] [µM] | IC50 [6] [µM] | IC50 [7] [µM] | IC50 [8] [µM] | IC50 [9] [µM] | IC50 [10] [µM] | Inhibited Rate of Tumor (%) [11] [%] | other results
1 | CC(O)C(=O)O.Nc1sc(-c2c(F)cccc2F)nc1C(=O)Nc1cncnc1OCC1CCNCC1 [Lactate of compound of Formula (I)] | 0.08 | 0.31 | 9.05 | 7.60 | 0.28 | 0.64 | 0.34 | 0.04 | 0.34 | 0.06 | 0.13 | 71 | 
2 | CS(=O)(=O)O.Nc1sc(-c2c(F)cccc2F)nc1C(=O)Nc1cncnc1OCC1CCNCC1 [Mesylate of compound of Formula (I)] | 0.06 | 0.13 | 7.42 | 7.55 | 0.45 | 0.77 | 0.55 | 0.02 | 0.43 | 0.05 | 0.31 | 74 | 
3 | Nc1sc(-c2c(F)cccc2F)nc1C(=O)Nc1cncnc1OCC1CCNCC1 [Compound of Formula (I), 5-amino-2-(2,6-difluorophenyl)-N-(4-(piperidine-4-methoxy)pyrimidine-5-) thiazole-4-formamide] |  |  |  | 7.40 |  |  |  |  |  |  |  | 66 | IC50 ([1]; Homo sapiens): 0.34 µM; IC50 ([2]; Homo sapiens): 0.27 µM; IC50 ([3]; Homo sapiens, U-937, U937, incubated for 72 hours): ≥ 13.4 µM; IC50 ([4]; Homo sapiens): 0.52 µM; IC50 ([5]; Mus musculus): 0.93 µM; IC50 ([6]; Mus musculus): 0.61 µM; IC50 ([7]; Mus musculus): 0.11 µM; IC50 ([8]; Homo sapiens): 0.51 µM; IC50 ([9]; Mus musculus): 0.12 µM; IC50 ([10]; Mus musculus): 0.32 µM
4 | Br.Nc1sc(-c2c(F)cccc2F)nc1C(=O)Nc1cncnc1OCC1CCNCC1 [Hydrobromide of compound of Formula (I)] | 0.11 | 0.13 | 4.66 | 7.41 | 0.51 | 0.76 | 0.66 | 0.02 | 0.42 | 0.16 | 0.31 | 66 | 

Further lines, with some results ahead:

Row | IC50 [1] [µM] | IC50 [2] [µM] | IC50 ([3]; U937, incubated for 72 hours) [µM] | pIC50 (FLT3 kinase) | IC50 [4] [µM] | IC50 [5] [µM] | IC50 [6] [µM] | IC50 [7] [µM] | IC50 [8] [µM] | IC50 [9] [µM] | IC50 [10] [µM] | Compound | Inhibited Rate of Tumor (%) [11] [%] | other results
5 | 0.32 | 0.12 | 2.09 | 7.57 | 0.43 | 0.94 | 0.53 | 0.02 | 0.41 | 0.03 | 0.32 | CC(=O)O.Nc1sc(-c2c(F)cccc2F)nc1C(=O)Nc1cncnc1OCC1CCNCC1 [Acetate of compound of Formula (I)] | 77 | 
6 | 0.05 | 0.08 | 6.21 | 7.82 | 0.12 | 0.45 | 0.32 | 0.02 | 0.13 | 0.03 | 0.21 | Cl.Nc1sc(-c2c(F)cccc2F)nc1C(=O)Nc1cncnc1OCC1CCNCC1 [Hydrochloride salt of compound of Formula (I)] | 86 | 
7 | 0.21 | 0.22 | 3.56 | 7.55 | 0.23 | 0.56 | 0.23 | 0.04 | 0.23 | 0.05 | 0.22 | Nc1sc(-c2c(F)cccc2F)nc1C(=O)Nc1cncnc1OCC1CCNCC1.O=S(=O)(O)O [Sulphate of compound of Formula (I)] | 68 | 
